Like-named read-outs stand apart in the source and are kept apart here.
Legend:
[1] = system: S-GAG (aggrecanase activity); test: Histamine induced acute articular inflammation in mouse: S-GAG analysis (DMMB assay) of cartilage extract; format: in vivo; conditions: C57B16 mice, oral
Description: (§1) At 1-hour post oral treatment with either vehicle hydroxypropyl methylcellulose (HPMC) or E1, C57B16 mice were anaesthetized under isofluorane by inhalation. An H1 specific receptor antagonist desloratadine (5 mg/kg) was used as a positive control. The left hind knee was shaved, dampened with 70% ethanol and injected intra articularly into the knee joint (6 μl volume) with either saline or histamine (5 μM) using a glass Hamilton syringe and 30-gauge needle. Mice were allowed to recover in their home cage and kept on study for 48 hours post injection and dosed with compound.
(§2) After synovial lavage, the joint was disarticulated and cartilage was removed with a scalpel from the tibial plateau & femoral condyle, taking care to minimise the amounts of bone. Cartilage samples were weighed and snap frozen. The cartilage from individual animals was extracted in 200 μl high salt buffer (HSB) overnight at 4° C. with gentle agitation.
(§3) Samples were centrifuged at 10000 rpm for 10 min and the HSB cartilage extract decanted and stored at −80° C. prior to analysis.
HSB cartilage extracts were digested with hyaluronidase (110 units/ml) 37° C. for 3 hrs followed by papain digestion at 60° C. overnight. Digested samples were then centrifuged at 12000 g for 15 minutes. […] The plate was read immediately at 532 nm and 620 nm wavelengths and data calculated as O.D 532 nm/O.D 620 nm minus background. […]

[2] = in vivo; conditions: mouse
Description: In order to gain confidence in predicting circulating levels, mouse PK at 1 mg/kg oral dosing was subsequently carried out.
Blood concentrations are given in nM.

[3] = Mouse PK in low dose pharmacodynamic study (micro-sampling, LC-MS/MS); format: in vivo; conditions: mice, oral 0.1, 0.001 and 0.0001 mg/kg b.i.d. for 48 hrs, blood
Description: Mice were weighed and orally dosed according to weight at a dose volume of 10 ml/kg (dosed at 0.1 mg/kg, 0.001 mg/kg and 0.0001 mg/kg b.i.d. for 48 hrs). The PK and low dose pharmacodynamic studies were performed in the same group of animals.
Individual mice were repeatedly sampled at various timepoints over the 48 hr duration of the study by taking small volumes of blood by micro-sampling technique. After heating and mild restrain behind a Perspex stand, the tip of the tail was pricked with a 24 gauge needle and whole blood collected into an EDTA 20 μl glass micro sampling tubes. The 20 μl blood sample was then mixed with 80 μls of distilled water and frozen until analysis.
At study termination the mice were culled using CO2 gas. A blood volume of about 0.4 mL was obtained by cardiac puncture. A volume of whole blood was then mixed with distilled water to lyse the cells (ratio 1:1) and stored for analysis.

[4] = in vivo; conditions: guinea pig
Source text: (§4) This Fabs parameter was then adjusted to bioavailability (F) by correction for hepatic extraction. […] The clinical dosing frequency desired was assumed to be once daily.

[5] = in vivo; conditions: rat
Source text: as §4

[6] = Human dose prediction; conditions: used for human Vss estimate
Source text: Human dose prediction for clinical studies requires an estimate of human PK parameters important for defining the elimination T1/2 and the shape and magnitude of the plasma concentration vs time profile at a particular dose. These estimated parameters include Clearance, Volume of Distribution at Steady State (Vss), absorption rate constant (Ka), bioavailability (F) and dosing frequency. Human dose predictions also require some pharmacological evidence as to how exposure relates to efficacy (McGinnity, Collington, Austin & Riley, Current Drug Metabolism 2007 8 463-479).
Having defined the shape and magnitude of the human plasma concentration vs time curve, the final step was to adjust the dose so that plasma concentrations are attained that are likely to achieve efficacy. […] It was impossible to quantify the compound at these dose levels; consequently plasma concentrations observed at a higher oral dose (about 1 mg/kg) were extrapolated down to that likely at efficacious doses, assuming linear kinetics between the two. Finally, in the absence of a real PK/PD relationship in the mouse, it was assumed that efficacy in humans would be related to plasma AUC. Consequently, the human dose was adjusted to give, in conjunction with the estimated human PK parameters defined above, a human AUC value similar to that observed in mouse at efficacious doses.

[7] = rat, in vivo
Source text: as §4

[8] = system: MMP13; test: Histamine induced acute articular inflammation in mouse: MMP13 fluorokine ELISA of cartilage extract; format: in vivo; conditions: for cartilage extract MMP13 levels: C57B16 mice, oral
Description: as §1, §2, §3
MMP13 fluorokine ELISA (96-Well Plate Format)
HSB cartilage extracts were tested in duplicate at a 1:5 dilution. There were no deviations from the kit instructions (F13M00, R&D Systems) and the plate was read using an excitation wavelength of 320 nm and an emission wavelength of 405 nm.

[9] = In vivo PK in dog (Vss, Fabs)
Source text: as §4

SMILES: CNCc1ccc(-c2cnc3c(c2)C[C@@]2(CN4CCC2CC4)O3)s1 [Example E1, N-methyl-1-{5-[(2R)-3′H-spiro[4-azabicyclo[2.2.2]octane-2,2′-furo[2,3-b]pyridin]-5′-yl]-2-thienyl}methanamine]
- S-GAG cartilage levels ([1]; 1 mg/kg b.i.d. for 48 hrs): significantly reduced
- S-GAG cartilage levels ([1]; 1 mg/kg single dose over 48 hr): significantly reduced
- concentration at 0 h ([2]; 0.001 mg/kg): 0.0003 nM
- concentration at 0.17 h ([2]; 0.001 mg/kg): 0.0017 nM
- concentration at 0.33 h ([2]; 0.001 mg/kg): 0.0058 nM
- concentration at 0.5 h ([2]; 0.001 mg/kg): 0.0081 nM
- concentration at 0.75 h ([2]; 0.001 mg/kg): 0.0119 nM
- concentration at 1 h ([2]; 0.001 mg/kg): 0.0156 nM
- concentration at 2 h ([2]; 0.001 mg/kg): 0.0266 nM
- concentration at 4 h ([2]; 0.001 mg/kg): 0.0326 nM
- concentration at 6 h ([2]; 0.001 mg/kg): 0.0332 nM
- concentration at 8 h ([2]; 0.001 mg/kg): 0.0349 nM
- concentration at 10 h ([2]; 0.001 mg/kg): 0.0297 nM
- concentration at 12 h ([2]; 0.001 mg/kg): 0.0284 nM
- concentration at 24 h ([2]; 0.001 mg/kg): 0.0172 nM
- concentration at 0 h ([2]; 0.01 mg/kg): 0 nM
- concentration at 0.17 h ([2]; 0.01 mg/kg): 0.02 nM
- concentration at 0.33 h ([2]; 0.01 mg/kg): 0.06 nM
- concentration at 0.5 h ([2]; 0.01 mg/kg): 0.08 nM
- concentration at 0.75 h ([2]; 0.01 mg/kg): 0.12 nM
- concentration at 1 h ([2]; 0.01 mg/kg): 0.16 nM
- concentration at 2 h ([2]; 0.01 mg/kg): 0.27 nM
- concentration at 4 h ([2]; 0.01 mg/kg): 0.33 nM
- concentration at 6 h ([2]; 0.01 mg/kg): 0.33 nM
- concentration at 8 h ([2]; 0.01 mg/kg): 0.35 nM
- concentration at 10 h ([2]; 0.01 mg/kg): 0.3 nM
- concentration at 12 h ([2]; 0.01 mg/kg): 0.28 nM
- concentration at 24 h ([2]; 0.01 mg/kg): 0.17 nM
- concentration at 0 h ([2]; 0.03 mg/kg): 0.01 nM
- concentration at 0.17 h ([2]; 0.03 mg/kg): 0.05 nM
- concentration at 0.33 h ([2]; 0.03 mg/kg): 0.17 nM
- concentration at 0.5 h ([2]; 0.03 mg/kg): 0.24 nM
- concentration at 0.75 h ([2]; 0.03 mg/kg): 0.36 nM
- concentration at 1 h ([2]; 0.03 mg/kg): 0.47 nM
- concentration at 2 h ([2]; 0.03 mg/kg): 0.8 nM
- concentration at 4 h ([2]; 0.03 mg/kg): 0.98 nM
- concentration at 6 h ([2]; 0.03 mg/kg): 1 nM
- concentration at 8 h ([2]; 0.03 mg/kg): 1.05 nM
- concentration at 10 h ([2]; 0.03 mg/kg): 0.89 nM
- concentration at 12 h ([2]; 0.03 mg/kg): 0.85 nM
- concentration at 24 h ([2]; 0.03 mg/kg): 0.52 nM
- concentration at 0 h ([2]; 0.1 mg/kg): 0.03 nM
- concentration at 0.17 h ([2]; 0.1 mg/kg): 0.17 nM
- concentration at 0.33 h ([2]; 0.1 mg/kg): 0.58 nM
- concentration at 0.5 h ([2]; 0.1 mg/kg): 0.81 nM
- concentration at 0.75 h ([2]; 0.1 mg/kg): 1.19 nM
- concentration at 1 h ([2]; 0.1 mg/kg): 1.56 nM
- concentration at 2 h ([2]; 0.1 mg/kg): 2.66 nM
- concentration at 4 h ([2]; 0.1 mg/kg): 3.26 nM
- concentration at 6 h ([2]; 0.1 mg/kg): 3.32 nM
- concentration at 8 h ([2]; 0.1 mg/kg): 3.49 nM
- concentration at 10 h ([2]; 0.1 mg/kg): 2.97 nM
- concentration at 12 h ([2]; 0.1 mg/kg): 2.84 nM
- concentration at 24 h ([2]; 0.1 mg/kg): 1.72 nM
- AUC ([2]; po, 0.001 mg/kg): 0.29 nM·h
- Cmax ([2]; po, 0.001 mg/kg): 0.035 nM
- AUC ([2]; po, 0.01 mg/kg): 2.94 nM·h
- Cmax ([2]; po, 0.01 mg/kg): 0.349 nM
- AUC ([2]; po, 0.03 mg/kg): 8.81 nM·h
- Cmax ([2]; po, 0.03 mg/kg): 1.05 nM
- AUC ([2]; po, 0.1 mg/kg): 29.4 nM·h
- Cmax ([2]; po, 0.1 mg/kg): 3.49 nM
- AUC ([2]; po, 1 mg/kg): 294 nM·h
- Cmax ([2]; po, 1 mg/kg): 35 nM
- concentration at 0 h ([2]; po, 1 mg/kg): 0.31 nM
- concentration at 0.17 h ([2]; po, 1 mg/kg): 1.65 nM
- concentration at 0.33 h ([2]; po, 1 mg/kg): 5.75 nM
- concentration at 0.5 h ([2]; po, 1 mg/kg): 8.08 nM
- concentration at 0.75 h ([2]; po, 1 mg/kg): 11.9 nM
- concentration at 1 h ([2]; po, 1 mg/kg): 15.6 nM
- concentration at 2 h ([2]; po, 1 mg/kg): 26.6 nM
- concentration at 4 h ([2]; po, 1 mg/kg): 32.6 nM
- concentration at 6 h ([2]; po, 1 mg/kg): 33.2 nM
- concentration at 8 h ([2]; po, 1 mg/kg): 34.9 nM
- concentration at 10 h ([2]; po, 1 mg/kg): 29.7 nM
- concentration at 12 h ([2]; po, 1 mg/kg): 28.4 nM
- concentration at 24 h ([2]; po, 1 mg/kg): 17.2 nM
- circulating levels [3]: could not be detected in many animals
- Vd [4]: 10.2 L/kg
- Vd [5]: 35.5 L/kg
- Vss derived by simple allometry across rat and dog [6]: 5.7 L/kg
- Fabs (fraction absorbed) [7]: 83%
- cartilage extract MMP13 levels ([8]; 0.0001 mg/kg b.i.d. for 48 hrs (further study, FIG. 6)): decreased levels of MMP13
- cartilage extract MMP13 levels ([8]; 0.001 mg/kg b.i.d. for 48 hrs (further study, FIG. 6)): decreased levels of MMP13
- cartilage extract MMP13 levels ([8]; 0.1 mg/kg b.i.d. for 48 hrs (further study, FIG. 6)): decreased levels of MMP13
- cartilage extract MMP13 levels ([8]; 0.1 mg/kg b.i.d. for 48 hrs, tibial cartilage (first study, FIG. 4)): decreased levels of MMP13
- cartilage extract MMP13 levels ([8]; 1 mg/kg b.i.d. for 48 hrs, tibial cartilage): decreased levels of MMP13
- cartilage extract MMP13 levels ([8]; 1 mg/kg once over the 48 hr study period, tibial cartilage): decreased levels of MMP13
- dose at which efficacy against MMP down-regulation and joint swelling was observed (as low as) ([8]; mouse PD studies): 0.1 µg/kg
- Fabs (fraction absorbed) ([9]; dog): 70%
- Vd ([9]; dog in vivo): 27 L/kg

Reference: patent US20090156625A1, “Novel Use of a Nicotinic Receptor Agonist 156” (AstraZeneca AB, priority 2007, published 2009)
